Earlier results, collected in publication PMC8725427 (Cellulose (London, England), 2022).
pEC50, pIC50: −log10 of the molar value.

Columns and labels:
[1] = in vitro, over a period concerned; ref Vedula et al. ([2016])
[2] = from nanoliposomal carrier, simulated lung fluid; ref Vartak et al. ([2021])
healthy organs = settings: doses as high as 8 g/day; ref Almosa et al. [2020]
influenza A virus (IAV) = settings: ref Chen et al. [2010]
HIV-1 integrase = settings: read-out: IC50 to inhibit the HIV-1 integrase; ref Mazumder et al. [1995]
SARS-CoV-1 = settings: read-out: EC50 for SARS-CoV-1 replication inhibition
[3] = carboxymethyl cellulose 2% (w/v) in PBS medium; ref Gunathilake et al. [2020b]
[4] = system: transmissible gastroenteritis virus; settings: read-out: IC50 for transmissible gastroenteritis virus; ref Li et al. [2020]
[5] = system: vesicular stomatitis virus; settings: read-out: IC50 for vesicular stomatitis virus
chikungunya virus = settings: read-out: IC50 for chikungunya virus; ref von Rhein et al. [2016]
influenza A virus = settings: read-out: IC50 for influenza A virus; ref Richart et al. [2018]

Nc1nc2c(ncn2COCCO)c(=O)[nH]1 [ACV, acyclovir]
Percentage of drug release [1]: ~5%

CCC(CC)COC(=O)[C@H](C)N[P@](=O)(OC[C@H]1O[C@@](C#N)(c2ccc3c(N)ncnn23)[C@H](O)[C@@H]1O)Oc1ccccc1 [Remdesivir, remdesivir]
Time to complete drug release [2]: ≤ 50 h

COc1cc(/C=C/C(=O)CC(=O)/C=C/c2ccc(O)c(OC)c2)ccc1O [curcumin]
Lethal effect on healthy organs (healthy organs): no lethal effect | Effective dose against influenza A virus (IAV) (influenza A virus (IAV)): ~ 10 µM | pIC50 (HIV-1 integrase): 4.40 | pEC50 (SARS-CoV-1): < 5.00 | Curcumin solubility in carboxymethyl cellulose medium [3]: 147 ± 5.66 µg/mL | pIC50 [4]: 5.07 | pIC50 [5]: 5.35 | pIC50 (chikungunya virus): 4.97 | pIC50 (influenza A virus): ~6.70
